Legend:
[1] = system: SCC114 cells; experiment: Dynein and NuMA localization on mitotic spindles (immunofluorescence); format: cell-based, human; conditions: SCC114, 100 μM griseofulvin, 24 hours
Description: Cells grown on glass coverslips were fixed in −20° C. methanol/acetone (1:1) for 7 min. After blocking non-specific sites with 10% goat serum (Sigma)/PBS for 5 min, the cells were incubated with primary antibodies for 1 h. Unlabelled antibodies were used at following dilutions: mouse monoclonal antibody to Eg5, 1:500 (Transduction Laboratories, Lexington, Ky.); mouse monoclonal antibody to γ-tubulin (GTU-88) at 1:300, rabbit polyclonal antibody to γ-tubulin at 1:100, and mouse monoclonal antibody to α-tubulin at 1:500 (Sigma, Deisenhofen, Germany); rabbit anti-phospho-histone H3, 1:500 (Upstate Biotechnology, Lake Placid, N.Y.); mouse monoclonal antibody to dynein, 1:50 (Chemicon International, Hampshire, UK); mouse monoclonal antibody to NuMA, 1:50 (Calbiochem, Darmstadt, Germany). Coverslips were then washed three times with PBS and incubated with secondary antibodies for 25 min before adding DAPI to a final concentration of 0.1 μg/ml (Sigma) to the antibody dilution for additional 5 min. […] Immunostained cells were examined using a Zeiss Axiovert 200 M fluorescence microscope (Göttingen, Germany) and images were processed with Photoshop (Adobe, München, Germany) software. […]

[2] = system: N115 mouse neuroblastoma cells; experiment: Inhibition of centrosome coalescence and microtubule network in interphase cells (immunofluorescence); format: cell-based; conditions: N115, 50 μM griseofulvin, 24 hours
Description: (§1) All cell lines (BJ fibroblasts (available from ATCC), SCC114 (18), HeLa (ATCC), MCF7 (ATCC), N115 and U2OS (ATCC) were cultured in Dulbecco's modified Eagle's Medium (DMEM, PAA Laboratories, Pasching, Germany) supplemented with 10% FCS (PAA), 20 U/ml penicillin and 20 μg/ml streptomycin (Biochrom, Berlin, Germany) at 37° C., 5% CO2. SCC114-D1 cells stably expressing GFP-α-tubulin were generated by transfection (Fugene 6, Roche Diagnostics, Mannheim, Germany) of the transgene in pEGFP-C1 (Clontech, Heidelberg, Germany) and maintained under selective pressure by addition of geniticin (Gibco, Invitrogen, Karlsruhe, Germany) into complete medium at a concentration of […]. When indicated, griseofulvin (Sigma, Deisenhofen, Germany) was added to culture medium at several concentrations (0-100 μM), and incubation was continued for 24-72 h. Griseofulvin was dissolved in DMSO (Sigma); the final DMSO concentration in all experiments was 0.1%.
Cells grown on glass coverslips were fixed in −20° C. methanol/acetone (1:1) for 7 min. After blocking non-specific sites with 10% goat serum (Sigma)/PBS for 5 min, the cells were incubated with primary antibodies for 1 h. […] Immunostained cells were examined using a Zeiss Axiovert 200 M fluorescence microscope (Göttingen, Germany) and images were processed with Photoshop (Adobe, München, Germany) software. […]

[3] = system: SCC114 cells; experiment: Mitotic cells by phospho-histone H3 two-parameter flow cytometry; format: cell-based, human; conditions: SCC114, 35 μM griseofulvin, 24 hours (29.1% prior to treatment)
Description: (§2) Cells were plated in 6-well plates (Greiner Bio-One, Kremsmuenster; Austria), treated 24 h later with different concentrations of griseofulvin and incubated for 24 h. Both attached and unattached cells were harvested and washed with PBS. For cell cycle, analysis cells were fixed in −20° C. methanol (70%) for at least 45 min. Cells were then washed with PBS and incubated in propidiumodide buffer containing 0.01 mg/ml propidiumiodide (Molecular Probes) and 0.25 mg/ml RNase A (Roth, Karlsruhe, Germany) for 30 min. For the histone H3-assay, cells were fixed in 70% ethanol, incubated with 0.25% Triton X-100/PBS for 15 min on ice, and stained with rabbit antibody to phospho-histone H3 (1:500; Upstate Biotechnology) for 2 h at room temperature, followed by 1 h of incubation with Alexa 488 conjugated anti-rabbit IgG (1:1000; Molecular Probes). DNA was counterstained with propidiumiodide buffer (see above) for 30 minutes at 37° C. Cells were analyzed with a FACScan flow cytometer (Becton Dickinson, Heidelberg, Germany) using CellQuest Software.

[4] = system: BJ fibroblasts; experiment: as above; format: cell-based, human; conditions: 35 μM griseofulvin, 24 hours (4.1% prior to treatment)
Description: as §2

[5] = system: BJ fibroblasts; experiment: Colorimetric MTT cytotoxicity assay; format: cell-based; conditions: Homo sapiens, Fibroblast, highest concentration 100 μM, read-out: growth inhibition
Description: (§3) The cytotoxicity assay was performed as previously described (53). Briefly, MTT (Thiazolyl Blue Tetrazolium Blue; Sigma) was dissolved in PBS at 5 mg/ml and filtered. 0.3×10^5 cells were plated in 96 well plates (Nunc) 24 h before addition of griseofulvin. Cells were then treated with different concentrations of griseofulvin for 22 h. Stock MTT solution (10 μl per 100 μl medium) was added to all wells, and plates were incubated additional 2 h at 37° C. Medium was discarded, 200 μl DMSO was added to each well and incubated for 20 minutes at 37° C. When all crystals were dissolved, the plates were read on a microtiterplate […] reader (Tecan, Crailsheim, Germany), using a test wavelength of 650 nm and a reference wavelength of 750 nm.

[6] = Colorimetric MTT cytotoxicity assay; format: cell-based; conditions: human, SCC114 cells, SCC114, 0-100 μM, read-out: IC50 cytotoxicity / half-maximal inhibition of cell growth
Description: as §3

[7] = system: SCC114 cells; experiment: G2/M cell cycle arrest, propidium iodide flow cytometry; format: cell-based, human; conditions: SCC114, 20 μM griseofulvin, 24 hours
Description: as §2

[8] = system: HeLa cells; experiment: as above; format: cell-based, human; conditions: 20 μM griseofulvin, 24 hours
Description: as §2

[9] = system: BJ fibroblasts; experiment: as above; format: cell-based, human; conditions: 20 μM griseofulvin, 24 hours
Description: as §2

[10] = system: U2OS cells; experiment: Induction of multipolar mitotic spindles (immunofluorescence); format: cell-based, human; conditions: 100 μM griseofulvin, 24 hours
Description: as §1
(§4) Cells grown on glass coverslips were fixed in −20° C. methanol/acetone (1:1) for 7 min. After blocking non-specific sites with 10% goat serum (Sigma)/PBS for 5 min, the cells were incubated with primary antibodies for 1 h. Unlabelled antibodies were used at following dilutions: mouse monoclonal antibody to Eg5, 1:500 (Transduction Laboratories, Lexington, Ky.); mouse monoclonal antibody to γ-tubulin (GTU-88) at 1:300, rabbit polyclonal antibody to γ-tubulin at 1:100, and mouse monoclonal antibody to α-tubulin at 1:500 (Sigma, Deisenhofen, Germany); rabbit anti-phospho-histone H3, 1:500 (Upstate Biotechnology, Lake Placid, N.Y.); mouse monoclonal antibody to dynein, 1:50 (Chemicon International, Hampshire, UK); mouse monoclonal antibody to NuMA, 1:50 (Calbiochem, Darmstadt, Germany). Coverslips were then washed three times with PBS and incubated with secondary antibodies for 25 min before adding DAPI to a final concentration of 0.1 μg/ml (Sigma) to the antibody dilution for additional 5 min. The following fluorchrome-conjugated secondary antibodies were used: rabbit Alexa 488, 1:1000 (Molecular Probes, Invitrogen, Karlsruhe, Germany) and mouse Cy3, 1:400 (Jackson ImmunoResearch Laboratories, West Grove, PN). Coverslips were washed three times with PBS, rinsed shortly with water and post-fixed in absolute ethanol for 1 min. Airdryed Coverslips were embedded in Vectashield (Vector Laboratories, Burlingame, Calif.) or Fluoromount G (Southern Biotech, Birmingham, Ala.). Immunostained cells were examined using a Zeiss Axiovert 200 M fluorescence microscope (Göttingen, Germany) and images were processed with Photoshop (Adobe, München, Germany) software.

[11] = system: SCC114 cells; experiment: as above; format: cell-based, human; conditions: SCC114, 20 μM griseofulvin, 24 hours
Description: as §1, §4

[12] = system: HeLa cells; experiment: as above; format: cell-based, human; conditions: 100 μM griseofulvin, 24 hours
Description: as §1, §4

[13] = system: BJ fibroblasts; experiment: as above; format: cell-based, human; conditions: 24 hours
Description: as §1, §4

[14] = system: MCF7 cells; experiment: as above; format: cell-based, human; conditions: 24 hours
Description: as §1, §4

SMILES: COC1=CC(=O)C[C@@H](C)[C@]12Oc1c(Cl)c(OC)cc(OC)c1C2=O [griseofulvin]
- percentage of multipolar spindles labelled with antibody to NuMA [1]: 99.5±0.5%
- percentage of multipolar spindles labelled with antibody to dynein [1]: 99±1%
- percentage of interphase cells harbouring only short and convoluted microtubules [2]: 98%
- percentage of interphase cells lacking clustering of centrioles into a single aggregate [2]: 68%
- percentage of cells in mitosis [3]: 56.4%
- percentage of cells in mitosis [4]: 5.5%
- inhibition at 100 µM [5]: 25 ± 1%
- IC50 at 22 h [6]: 35 µM
- percentage of cells arrested in G2/M phase [7]: 91.2±3.9%
- percentage of cells arrested in G2/M phase [8]: 65.6±7.6%
- percentage of cells in G2/M [9]: 19.1±1.4%
- percentage of mitoses multipolar [10]: more than 85%
- percentage of multipolar spindles [11]: 53%
- percentage of mitoses multipolar [12]: more than 85%
- percentage of metaphases multipolar ([13]; BJ fibroblasts, 20 μM griseofulvin): 3%
- percentage of mitotic cells harbouring bipolar spindles ([13]; normal diploid fibroblasts, 100 μM griseofulvin): 87%
- percentage of multipolar spindles ([14]; MCF7, 20 μM griseofulvin): 20%
- percentage of mitoses multipolar ([14]; MCF7, 100 μM griseofulvin): more than 85%
